Experimental data published in US20220227762A1, “AMIDE-SUBSTITUTED IMIDAZO COMPOUNDS AS SELECTIVE INHIBITORS OF INDOLEAMINE 2,3-DIOXYGENASES” (BEIGENE, LTD., priority 2019, published 2022).

What was measured:
[1] = molecular target: T1, IDO1 (Homo sapiens, UniProt P14902); assay: HeLa Cell-Based IDO1 Kyn (Kynurenine) Production Assay; conditions: HeLa cells, IDO1 induced by IFN-γ, 0.4 mM L-Trp, 48 hours incubation, Kyn absorbance at 480 nm; read-out: Cell-Based EC50 (nM) Hela IDO1
T1 construct: endogenous in cells; host or cells: HeLa cells (American Type Culture Collection), induced with human recombinant IFN-γ
T1 sequence (P14902 whole entry): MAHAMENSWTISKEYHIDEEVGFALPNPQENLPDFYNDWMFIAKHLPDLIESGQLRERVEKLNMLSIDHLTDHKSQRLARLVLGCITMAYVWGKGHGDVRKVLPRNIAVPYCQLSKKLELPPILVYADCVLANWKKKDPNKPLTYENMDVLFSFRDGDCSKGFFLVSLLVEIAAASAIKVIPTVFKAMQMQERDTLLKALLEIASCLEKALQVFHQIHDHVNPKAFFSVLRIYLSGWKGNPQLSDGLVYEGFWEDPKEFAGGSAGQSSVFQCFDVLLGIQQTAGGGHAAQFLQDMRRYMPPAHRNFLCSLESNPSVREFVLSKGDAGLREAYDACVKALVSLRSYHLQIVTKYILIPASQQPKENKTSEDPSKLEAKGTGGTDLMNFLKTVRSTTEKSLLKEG
Protocol: HeLa Cell-Based IDO1 Kyn (Kynurenine) Production Assay:
The inhibitory activity of IDO1 inhibitors is determined by using a colorimetric reaction to measure Kyn generated from L-Trp (L-Tryptophon) oxidation by cellular IDO1 in HeLa cells after induction of IDO1 expression by IFN-γ. Hela cells were obtained from the American Type Culture Collection and recovered in 10% FBS-containing phenol red-free DMEM medium. Cells were plated onto a 96-well plate (100 μl/well) at 8000 cells per well and kept at 37° C. in a humidified incubator supplied with 5% CO2. 4 hours later, Human recombinant IFN-γ (8901SC, CST) was added to cells (final concentration 100 ng/mL) to stimulate endogenous IDO1. Compounds at different concentrations diluted in dimethylsulfoxide (DMSO) were added simultaneously with IFN-γ and 0.4 mM L-Trp. Cells were kept at 37° C. in a humidified incubator supplied with 5% CO2. After 48 hours of incubation, 100 μl supernatant from each well was removed to a new plate. The protein in the medium was precipitated with the addition of 8 μl 6N trichloroacetic acid. The plate was incubated at 60° C. for 30 minutes and then centrifugation at 2500 rpm for 10 minutes to remove sediments. 80 μl supernatants were carefully removed to a new clean plate and added with an equal volume of 2% 4-(Dimethylamino)benzaldehyde (D2004, Sigma) dissolved in glacial acetic acid. The absorbance at 480 nm wavelength derived from Kyn was measured using a PHERAstar FS plate reader (BMG LABTECH). The IC50 for each compound was derived from fitting the dose-response data to the four-parameter logistic model by using XLfit software (IDBS).

[2] = system: plasma protein; assay: Plasma Protein Binding Assay (equilibrium dialysis); type: in vitro ADME; conditions: 50% plasma, Human plasma, 37° C., read-out: Plasma Protein Binding assay (fu %) Human
Protocol: Plasma Protein Binding Assay:
To evaluate the plasma protein binding extent, the bound (fb) and unbound (fu) fractions of test compound will be determined in vitro by equilibrium dialysis approach, using a 96-well dialysis device (HT Dialysis, Gales Ferry, Conn., USA). The equilibrium dialysis will be conducted in duplicate. A hundred and fifty μL of 50% plasma spiked with the test compound (final concentration of 5 μM) will be added into the donor side and 150 μL of Phosphate Buffer (PB) (0.002% Tween-80) into the corresponding receiving side. The device will be then sealed with adhesive film and shook at 80 rpm in the water bath at 37° C. for 6 h. At the end of incubation, 10 μL plasma sample will be transferred from the donor side into a 1.5 mL microcentrifuge tube, added with 90 μL PB (0.002% Tween-80), vortexed well and proteins precipitated by acetonitrile containing internal standard (IS). Ninety μL of PB (0.002% Tween-80) sample will be transferred from the receiver side into a 1.5 mL microcentrifuge tube, added with 10 μL 50% blank plasma, vortexed well and proteins precipitated by acetonitrile containing IS.
For recovery check, […] of the donor side loading samples will be aliquoted into a 1.5 mL microcentrifuge tube (in duplicate), added with 90 μL PB (0.002% Tween-80), vortexed well and proteins precipitated by acetonitrile containing IS.
For plasma stability check, 10 μL of the donor side loading samples will be aliquoted into a 1.5 mL microcentrifuge tube (in duplicate), incubated in the water bath at 37° C. for 6 h, added with 90 μL PB (0.002% Tween-80) solution at the end of the incubation, vortexed well and proteins precipitated by acetonitrile containing IS.
Appropriate LC-MS/MS methods will be developed for the analysis of the test or control compounds in the incubates.
The unbound fraction (fu) of the test compound and positive control compounds in 50% plasma will be calculated using the following equations.
Where CR is the area ratio of the test compounds to the IS in the receiving side, CD is the area ratio of the test compound to the IS in the corresponding donor side and D is the dilution factor of plasma.

In the case of `COC(=O)c1ccc2[nH]c([C@H](C)[C@H]3CC[C@@H](c4ccnc5ccc(F)cc54)CC3)nc2c1` [Example 28b, methyl 2-((R)-1-((1s,4S)-4-(6-fluoroquinolin-4-yl)cyclohexyl)ethyl)-1H-benzo[d]imidazole-5-carboxylate, reference compound], the EC50 [1] was 0.55 nM and the fraction unbound at 6 h, 5 μM [2] was 0.00067.
In the case of `C[C@@H](c1nc2c(F)c(F)c(F)cc2[nH]1)[C@H]1CC[C@@H](c2ccnc3ccc(F)cc32)CC1` [Example 29, 6-fluoro-4-((1S,4s)-4-((R)-1-(4,5,6-trifluoro-1H-benzo[d]imidazol-2-yl)ethyl)cyclohexyl)quinoline, reference compound], the EC50 [1] was 0.85 nM and the fraction unbound at 6 h, 5 μM [2] was 0.0002.
